Experimental findings from patent US5922891A, “2-substituted 1,8-dihydroxy-9(10H)-anthracenone pharmaceuticals” (priority 1997, dated 1999) are described below.

What is called IC50 is the concentration that gives 50% inhibition.

Data set [1] can be described thus: Inhibition of AAPH-induced lipid peroxidation in bovine brain phospholipid liposomes. Format: biochemical. Here is the method: Phospholipids were prepared essentially as described by Gutteridge, J. M. C., (Anal. Biochem., 82: 76-82 (1977)). Bovine brain tissue was cooled on ice, freed from blood vessels and washed repeatedly with 0.15 M NaCl, pH 7.4. The tissue was cut into pieces and then macerated with an ultra-turrax, passed through a fine-meshed sieve, and extracted four times with four times the volume of acetone. The extraction mixture was filtered by suction to remove the acetone, the residue dried under vacuum, and then repeatedly extracted with petroleum ether (40-60) using twice the volume of the original brain homogenate. The combined extracts were filtered, dried at 45° C., and dissolved in ether (one fifth the original brain volume). The mixture was treated with five times the volume of acetone, and the resulting precipitate was collected by suction-filtration, dried and stored under N2 at -20° C. in the dark. Bovine brain phospholipids were weighed into glass tubes and shaken in a vortex mixer (Heidolph) in the presence of five small glass beads (.phi. 4 mm) for 1 minute. The phospholipids were suspended in 0.15 M NaCl, pH 7.4, to a final concentration of 5 mg/ml. The mixture was purged with N2 for 1 minute and vigorously dispersed in a vortex mixer for 5 minutes. The liposomes were allowed to swell for 1 hour at 4° C., and vesicles with a mean size of 1-10 μm were obtained according to the method of Bangham, et al., (J. Mol. Biol., 13:238-252 (1965). The liposomes were stimulated with the azo initiator 2 2'-azobis (2-amidinopropane) hydrochloride according to the method of Gutteridge, J. M. C., (Anal. Biochem. 82:76-82 (1977)).
The following reagents were added to the glass tubes containing stimulating bovine brain phospholipid piposomes in the order and at the final concentrations listed: 0.3 ml HK2 PO4 --KOH buffer, pH 7.4 (30 mM), 0.29 ml double distilled H2 O, 0.2 ml liposomes (1 mg/ml), 0.2 ml FeCl3.H2 O (0.1 mM), 0.01 ml 2-substituted anthracenone compound of the invention (variable concentrations).
Appropriate blanks and controls using the vehicle (acetone) were conducted. The final reaction volumes were standardized to 1.0 ml. The reaction mixtures were incubated for 1 hour at 37° C. in a shaking water bath. […] of 20% (w/v) BHT, 0.5 ml 25% (w/v) HCl and 0.5 ml of 1% 2-thiobarbituric acid were added and the samples were heated at 100° C. for 15 minutes and then cooled in an ice bath (5 minutes). 2 ml of 1-butanol were added and the mixtures were vigorously shaken in a vortex mixer (Heidolph) for 15 seconds. The organic layer was separated by centrifugation at 3000 rpm (15 minutes) and absorbance at 532 nm was measured against butanol.

A further data set has as its target T1, 5-LO in bovine PMNL (Bos taurus, UniProt F1MQ78).
T1 construct: The purified PMNLs were suspended at a concentration of; endogenous in cells; host or cells: polymorphonuclear leukocytes isolated from bovine blood
T1 sequence (F1MQ78 1-674): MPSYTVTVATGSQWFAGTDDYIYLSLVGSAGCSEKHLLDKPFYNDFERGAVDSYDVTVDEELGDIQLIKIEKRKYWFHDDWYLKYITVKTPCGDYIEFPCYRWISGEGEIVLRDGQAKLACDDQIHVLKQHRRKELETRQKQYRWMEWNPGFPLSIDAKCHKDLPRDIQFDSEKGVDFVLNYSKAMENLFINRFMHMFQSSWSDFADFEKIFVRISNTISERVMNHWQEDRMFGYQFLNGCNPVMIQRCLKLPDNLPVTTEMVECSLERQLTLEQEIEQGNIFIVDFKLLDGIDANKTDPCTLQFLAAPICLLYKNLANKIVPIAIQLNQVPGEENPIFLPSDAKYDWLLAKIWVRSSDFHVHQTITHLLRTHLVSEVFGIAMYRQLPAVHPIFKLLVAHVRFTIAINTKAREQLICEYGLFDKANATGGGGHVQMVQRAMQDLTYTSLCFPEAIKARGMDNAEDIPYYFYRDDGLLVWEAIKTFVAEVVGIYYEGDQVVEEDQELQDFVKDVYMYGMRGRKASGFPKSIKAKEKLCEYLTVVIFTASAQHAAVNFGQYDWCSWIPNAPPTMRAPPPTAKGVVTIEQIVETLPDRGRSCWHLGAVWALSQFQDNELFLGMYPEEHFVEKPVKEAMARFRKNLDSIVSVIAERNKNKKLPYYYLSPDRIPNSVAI
In words: Inhibition of 5-lipoxygenase (5-HETE and LTB4 biosynthesis) in Ca-ionophore-stimulated bovine PMNL. The data set is classed as cell-based. To be noted: N = 3 or more. As to the method: Briefly, PMNLs were prepared from sodium EDTA-anticoagulated bovine blood, essentially as described by Walstra, P. et al., (Biochem. Biophys. Acta, 795:499-503 (1984)). Contaminating platelets were removed by repeated centrifugations at 100 g for 20 minutes. […] Cell counts were conducted with a Sysmex micro cell counter CC-130. Preincubation was performed with 2.4 ml of the suspension and 10 μl of a DMSO stock solution of test compounds at the desired concentrations in phosphate buffered saline (PBS) or vehicle control (DMSO at final concentration of 0.4%) for 15 minutes at 37° C. in a shaking water bath at 50 rpm. […] The incubation mixture was held on ice bath for 20 minutes and then centrifuged at 4000 g for 5 minutes at 0° C. The supernatant was diluted with 5 ml of water and passed through a prewashed (10 ml of methanol and 5 ml of water, sequentially) octadecylsilane reversed phase cartridge (Baker). The eicosanoids were eluted with 3 ml of methanol, diluted with 3 ml of water and subjected to reversed phase HPLC analysis using a 250×4 mm column packed with Nucleosil C18 (7 μm particles; Bischoff, Leonberg, Germany). The isocratic elution conditions of LTB4 were tetrahydrofuran (THF)/methanol/water/acetic acid (25+30+45+0.1), adjusted to pH 5.5 with concentrated NH3, at a flow rate of 0.9 ml/min (Kontron 420 pump), monitored at 280 nm with a Kontron 735 LC UV detector. 5-HETE was monitored at 232 nm using methanol/water/acetic acid (77+23+0.1), pH 5.5 and a flow rate 1.0 ml/min. Data were recorded on a MacLab data acquisition system (WissTech, Germany) and analysis was performed using the application Peaks on an Apple Macintosh Quadra 700 computer. Integrated areas of the peaks were compared to a PGB2 internal standard and to external standards of authentic samples. Molar absorption coefficients of Samuelsson et al., Borgeat, P. and B. Samuelsson, (Proc. Natl. Acad. Sci. USA, 76:2148-2152 (1979)), were used for making calculations. Inhibition was calculated by a comparison of the mean value of test compound (n=3) with control (n=6-8) activity: (1-test compound/control)×100.
See Walstra, P. et al., Biochem Biophys. Acta, 795:499-503 (1984); and Dannhardt et al. J. Pharm. Pharmacol., 44:419-424 (1992). […] (Schroder, J. M., J. Invest. Dermatol., 87:624-629 (1986); Tanzer, et al., Arch. Pharm. (Weinheim), 324:841-846 (1991)).

A further data set deals with HaCaT cells. In words: Antiproliferative activity against HaCaT cells (human keratinocyte cell line). Format: cell-based. As to conditions: 48 h, read-out: AA IC50 (antiproliferative activity). Here is the method:
HaCaT cells were grown in Dulbecco's modified Eagle's medium (DMEM, No. 041-11954A, Gibco) supplemented with 10% fetal calf serum, penicillin (100 U/mL), and streptomycin (100 μg/mL) in a humidified incubator containing 8% CO2 at 37° C. Cells (2.5·10^4 /1.1 ml per well) were seeded on 24-well multidishes and grown in DMEM. After 24 hours of growth, the medium was replaced with fresh medium and a test compound (0.1-5 μM) was added from freshly made stock solutions, which were prepared in DMSO and diluted with DMEM. The final concentration of DMSO in the culture medium was 0.2%. Controls were performed using DMSO or medium alone. Forty-eight hours after addition of a test compound to the culture, the medium was removed and each well was rinsed with phosphate-buffered saline (PBS, 100 μL). The cells were then incubated with sterile 0.5% trypsin, 0.2% EDTA in PBS for 20 minutes at 37° C. The detached cells from each well were suspended in DMEM and dispersed as single cells by gentle pipetting through an Eppendorf pipette. Cell growth was determined directly by counting the keratinocytes on a Neubauer counting chamber using phase contrast microscopy. Inhibition of cell proliferation was calculated by a comparison of the mean value of the test compound (N=3) with the control (N=6-8) activity: (1-test compound/control)×100.

Data set [2] in a line: Deoxyribose degradation as a measure of hydroxyl radical formation. The data set is classed as biochemical. To be noted: 75 μM test compound; controls < 0.1. Here is the method: ^c Deoxyribose degradation as a measure of hydroxyl radical formation
Indicated values are μmoles of malondialdehyde per mmole of deoxyribos
released by 75 μM test compound (controls < 0.1).
Degradation of deoxyribose provides a measurement of the amount of hydroxyl radical formation caused by the test compounds. The assay used to determine degradation of 2-deoxy-D-ribose followed generally the procedures of Gutteridge, J. M. C., Biochem. J., 224: 761-767 (1984) and Laughton, et al., Biochem. Pharmacol., 38: 2859-2865 (1989). The following reagents were added to glass tubes in the order and at the final concentrations listed. 0.3 mL kH2 PO4 --KOH buffer, pH 7.4 (30 mM), 0.2 ml double distilled H2 O, 0.2 ml 2-deoxy-D-ribose (2 mM), 0.2 ml FeCl3.6H2 O (0.1 mM), 0.1 ml 2-substituted anthracenone ([…]). Stock solutions of each of the 2-substituted anthracenone compounds were made up fresh before use. Appropriate blanks and controls using an acetronitrile vehicle were performed.
Final reaction volumes were standardized to 1.0 ml. The reaction mixtures were incubated for 2 hours at 37° C. in a shaking water bath at 50 rpm. 1 ml of 2.8% (w/v) trichloracetic acid and 1 ml of 1% (w/v in 0.05 N NaOH) 2-thiobarbituric acid (TBA) were added, and the samples were heated at 100° C. for 15 minutes and then cooled in an ice bath (5 minutes). 2 ml of each reaction mixture was treated with 0.05 ml of 36% (w/v) HCl and 2 of 1-butanol, followed by vigorous shaking with a vortex mixer (Heidolph) for 15 seconds. The organic layer was separated by centrifugation at 3000 rpm (15 minutes) and absorbance at 532 nm was measured against butanol. Calibration was performed using a malondialdehyde (MDA) standard prepared by hydrolysis of 1,1,3,3-tetraethoxypropane (Gutteridge, J. M. C., Anal. Biochem., 69: 518-526 (1975). TBA reactive material was expressed in terms of μmol MDA per μmol deoxyribose. The results of the assay are provided in Table I.

Like-named read-outs stand apart in the source and are kept apart here. A value given as a limit tells only on which side of the number the result lay.

With `CC(Cc1ccc(O)c(O)c1)C(C)Cc1ccc(O)c(O)c1` (stereo not shown) [Nordihydroguaiaretic acid (NDGA), Nordihydroguaiaretic acid, reference compound], in data set [1] (NDGA used as the standard, footnote d, read-out: LPO IC50 of the standard), the half-inhibitory concentration (IC50) turned out to be 2000 nM.
With `COc1c(OC)c(OC(C)=O)c2cc(Cl)ccc2c1OC(C)=O` [Ionapalene, reference compound], the IC50 on 5-LO in bovine PMNL was 500 nM; in the data set with HaCaT cells, 3200 nM.
`O=C(O)c1ccc(Cc2ccc3c(c2O)C(=O)c2c(O)cccc2C3)cc1` [XIA, 4-[(9,10-Dihydro-1,8-dihydroxy-9-oxo-2-anthracene)methyl]benzoic acid, reference compound] came in with an IC50 on 5-LO in bovine PMNL of 2000 nM.
For `COC(=O)CCCc1ccc2c(c1O)C(=O)c1c(O)cccc1C2` [IIIB, Methyl 4-(9,10-Dihydro-1,8-dihydroxy-9-oxo-2-anthracene) butanoate], the IC50 against 5-LO in bovine PMNL was more than 30000 nM; in the data set with HaCaT cells it was 1100 nM.
For the molecule `CN(O)C(=O)CCCCc1ccc2c(c1O)C(=O)c1c(O)cccc1C2` [IVD, N-Hydroxy-N-methyl-5-(9,10-dihydro-1,8-dihydroxy-9-oxo-2-anthracene)pentanamide], the half-maximal inhibitory concentration (IC50) in data set [1] (AAPH-induced, bovine brain phospholipid liposomes, N = 3 or more, read-out: LPO IC50 (inhibition of lipid peroxidation)) came to 16000 nM. For the same molecule, the “DD (deoxyribose degradation, malondialdehyde released)” value (“DD” for short) in data set [2] is given as 1.36 ± 0.05 μmol of MDA/mmol.
Take `COC(=O)c1ccc(C(=O)c2ccc3c(c2O)C(=O)c2c(O)cccc2C3)cc1` [XIIB, Methyl 4-[(9,10-Dihydro-1,8-dihydroxy-9-oxo-2-anthracene)oxomethyl]benzoate]: the “DD” value in data set [2] is 2.07 ± 0.12 μmol of MDA/mmol. In addition, the results for the IC50 against 5-LO in bovine PMNL and with HaCaT cells were more than 30000 nM and 1800 nM, respectively.
The corresponding values for `COC(=O)C(Cc1ccccc1)c1ccc2c(c1O)C(=O)c1c(O)cccc1C2` (stereo not shown) [IXB, Methyl 2-(9,10-Dihydro-1,8-dihydroxy-9-oxo-2-anthracene)-3-phenylpropionate] are 0.01 ± 0.00 μmol of MDA/mmol, more than 30000 nM and 1800 nM.
Regarding `COC(=O)C(CCc1ccccc1)c1ccc2c(c1O)C(=O)c1c(O)cccc1C2` (stereo not shown) [XB, Methyl 2-(9,10-Dihydro-1,8-dihydroxy-9-oxo-2-anthracene)-4-phenylbutanoate], the “DD” value in data set [2] is reported as 0.28 ± 0.03 μmol of MDA/mmol. This molecule also returned a concentration for half-maximal inhibition (IC50) at 5-LO in bovine PMNL of more than 30000 nM.
On to `COC(=O)Cc1ccc2c(c1O)C(=O)c1c(O)cccc1C2` [IB, Methyl 9,10-Dihydro-1,8-dihydroxy-9-oxo-2-anthracenacetate], for which the IC50 against 5-LO in bovine PMNL is more than 30000 nM.
On to `O=C(O)CCCCCc1ccc2c(c1O)C(=O)c1c(O)cccc1C2` [VA, 6-(9,10-Dihydro-1,8-dihydroxy-9-oxo-2-anthracene) hexanoic acid], for which the “DD” value in data set [2] was 2.29 ± 0.03 μmol of MDA/mmol. This molecule also had a half-inhibitory concentration (IC50) on 5-LO in bovine PMNL of 19000 nM.
